Laboratory results reported in patent US9290551B2, “Compounds for treating papilloma virus infection” (NanoVir, LLC, priority 2012, dated 2016).
Read-outs that look alike come from different tables or passages of the source.

How the values were obtained:
HPV 16 [1] = experiment: HPV 16 episome DNA levels in W12E cells by Q-PCR (Taqman); format: cell-based, Human papilloma virus; details: for effect on absolute HPV 16 DNA levels: higher doses, in some experiments, FIG. 3; for effect on HPV viral DNA: comparison of 1037, distamycin A and cidofovir, FIG. 5
HPV 16 [2] = experiment: as above; format: cell-based, Human papilloma virus; details: 10 μM, drug washed out on day 17, sub-cultured without drug for 2 weeks; FIG. 7
HPV31 = HPV31 DNA levels in keratinocytes by real-time PCR; format: cell-based, Human papilloma virus; details: effective (pseudo) IC50
Description: (§1) Human keratinocytes, including those maintaining HPV episomes, are cultured on mitomycin C-treated J2 3T3 cells in media containing three parts Dulbecco's modified Eagle medium (DMEM) and one part F12 media, our modification of published methods (Rheinwald and Green, 1975). Media (E Media) is supplemented with 0.4 μg/mL hydrocortisone, 10 ng/mL cholera toxin, 5 μg/mL insulin, 24 μg/mL adenine, 5 μg/mL transferrin, […] (T3), 10 ng/mL epidermal growth factor (EGF), 1% penicillin-streptomycin, and 5% fetal bovine serum (FBS). All cells are passaged at 70% confluency at a split ratio of 1:5.
(§2) Polyamides for HPV 18 are dissolved at 10 mM in 100% DMSO and diluted with H2O to 1 mM. Polyamides are added to cells in E media at final concentrations of 0.1-10 μM, with final DMSO concentrations of 0.1%. As controls, cells are incubated with normal E media and E media containing the “vehicle” 0.1% DMSO. The HPV DNA levels are then quantified according to previously published procedures (Garner-Hamrick and Fisher, Virology, 301, 334-41, 2002). After incubation, cells are harvested from the plates by either trypsinization or direct lysis with proteinase K digestion buffer (PK buffer: 100 mM NaCl, 10 mM Tris pH 8, 25 mM EDTA, 0.5% SDS, 0.1 mg/mL proteinase K). Trypsinized cells are counted on a hemocytometer and pelleted by centrifugation. Episomal HPV is isolated by the Hirt method (Hirt, 1967) and cell pellets are lysed in 0.6% SDS with 10 mM EDTA. NaCl is next added to a final concentration of 1 M. Following an overnight incubation at 4° C., precipitates containing the chromosomal DNA are spun down and episomal DNA precipitated by the addition of isopropanol. Cells lysed directly in PK buffer are transferred to microfuge tubes and incubated at 50° C. for 2 h. Lysates are then extracted with phenol/chloroform/isoamyl alcohol and spun through a phase lock gel (Eppendorf, Hamburg, Germany). Total DNA is then precipitated with 0.3 M NaOAc and 2.5 vol. ethanol and resuspended in Tris-EDTA (TE) buffer.
HPV31 primers-probe sets for PCR were also designed within the L1 gene:
(§3) All primers and probes are synthesized and HPLC purified by Applied Biosystems (Foster City, Calif.). The HPV probes are labeled with the 5′ reporter dye FAM (6-carboxy-fluorescein) and the 3′ quencher dye TAMRA (6-carboxytetramethyl-rhodamine). A standard curve is generated using a range of 10^8 to 10 copies/reaction of cloned, genomic HPV31 or HPV18 DNA using the following formula: (1.82×10^15)(μg/μL stock DNA)/(length in base pairs)(2)=copies/μL stock DNA. PCR reactions contain final concentrations of 1× Universal Master Mix (PE Applied Biosystems), 200 nM of each primer, and 250 nM probe (PE Applied Biosystems) in a reaction volume of 25 μL. Each Hirt-isolated DNA sample is analyzed in triplicate reactions for episomal HPV. Copies/reaction are determined from the standard curve, and copies/cell determined according to the following formula: (copies/reaction)×(DNA dilution)/(total # cells)=copies/cell.

[3] = system: rat hepatoma cells (H4IIE); format: cell-based
Description: (§4) Toxicity testing has been carried out for 3 separate polyamides. Two different Rat hepatoma assays were used because they are industry standards for predicting in vivo toxicity. The assays for ATP and membrane integrity assays are described in detail below. Thus, rat hepatoma cells (H4IIE) were seeded into 96-well plates and cultured in medium containing 20% bovine serum. Following an equilibration period of 48 hr, the cells were treated with the test compounds at various concentrations for 24 hr at 37° C. in 5% CO2. Polyamide compounds were tested for toxicity in the two separate assays. A TC50 (concentration needed to kill half of the cells) was not achieved for any polyamides tested over the wide concentration range explored.

HPV18 = HPV18 DNA levels in keratinocytes by real-time PCR; format: cell-based, Human papilloma virus; details: effective (pseudo) IC50
Description: as §1, §2
Viral DNA levels are next quantified according to variations on our previously published methods (Garner-Hamrick and Fisher, Virology, 301, 334-41, 2002). Quantitative PCR is performed using Real-Time PCR technology on an ABI PRISM 7700 Sequence Detector. All primers and probes were designed using Primer Express 1.0 (ABI). For HPV 18, PCR primer-probe sets were designed within the L1 gene:
as §3

[4] = system: Keratinocytes that maintain HPV 16 episomes; experiment: MTT cell viability assay; details: MTT assay; FIG. 2B, FIG. 5
Description: (§5) Cells were cultured for 5 days in the presence of polyamide; % Cell Viability=(OD590 drug/OD590 control)×100; n=3.
(§6) Solubilisation of the cells by the addition of a detergent results in the liberation of the crystals which are solubilized. The number of surviving cells is directly proportional to the level of the formazan product created. The color can then be quantified using a simple colorimetric assay. The results can be read on a multiwell scanning spectrophotometer (ELISA reader).
(§7) Cell viability was also assessed routinely with the MTT assay.

MTT cell viability assay = details: human, keratinocytes that maintain HPV 16 episomes
Description: as §5, §6, §7

HPV episomal DNA = experiment: Southern blot of HPV episomal DNA; format: cell-based, Human papilloma virus; details: 1 μM and 10 μM; FIG. 4
Description: Several alternative approaches have been used to confirm the effects of our compounds on viral DNA. […] DMSO is the vehicle control; HPV DNA indicates the linearized HPV DNA used to generate the hybridization probe via random primed labeling with DIG-dUTP (Roche); following hybridization, blot was incubated with anti-DIG-AP conjugate and HPV DNA detected using ECF substrate (Amersham) and Storm phosphorimager. […] Other NV compounds have similarly shown the expected decrease in viral DNA by Southern blotting.

[5] = Membrane integrity / modified propidium iodide procedure; format: cell-based; details: rat, membrane integrity assay, read-out: TC50
Description: as §4
A modified propidium iodide (PI) procedure was used to assess cell proliferation/viability. This specific nucleic acid binding dye fluoresces when intercalated within the nucleic acids. The […] enhances PI fluorescence approximately 20 times while the excitation maxima are shifted 30-40 ηm. During method development experiments, it was determined that Triton-X-100 was the best solution to permeabilize the H4IIE cells thereby allowing the PI access to intracellular RNA and DNA. Fluorescence was measured using a Packard Fusion plate reader at 540 ηm excitation and 610 nm emission.

[6] = effective (pseudo) IC50, 50% reduction in HPV DNA relative to vehicle (0.1% DMSO), read-out: HPV-16 IC50

Molecule: CN(CCCN)CCCNC(=O)CCNC(=O)c1cc(NC(=O)c2cc(NC(=O)c3cc(NC(=O)c4cc(NC(=O)CCNC(=O)c5cc(NC(=O)c6cc(NC(=O)CCCNC(=O)c7cc(NC(=O)c8cc(NC(=O)c9cc(NC(=O)CCNC(=O)c%10cc(NC(=O)c%11cc(NC(=O)c%12nccn%12C)cn%11C)cn%10C)cn9C)cn8C)cn7C)cn6C)cn5C)cn4C)cn3C)cn2C)cn1C [Polyamide 1028, ImPPβPPPγPPβPPPPβTa]
- HPV episomes by QPCR (HPV 16 [1]; concentrations as low as 5 μM): undetectable levels
- IC50 (HPV 16 [1]; [6]): 0.1 to 1 µM
- effect on absolute HPV 16 DNA levels (HPV 16 [1]): nearly complete elimination of detectable viral DNA
- IC50 (HPV 16 [1]; read-out: IC50 against HPV 16): 0.1 µM
- HPV 16 episomal DNA rebound after withdrawal (HPV 16 [2]): recovery does not approach control levels for at least two weeks
- IC50 (HPV31): 0.1 to 1 µM
- CC50 [3]: > 300 µM
- IC50 (HPV18): 0.1 to 1 µM

Molecule: Cn1cc(NC(=O)c2cc(NC(=O)c3cc(NC=O)cn3C)cn2C)cc1C(=O)NCCC(=N)N [distamycin A, reference compound]
- effect on HPV viral DNA (HPV 16 [1]): only effective against HPV DNA at high concentrations
- effect on cell viability [4]: also affect cell viability

Molecule: CN(CCCN)CCCNC(=O)CCNC(=O)c1cc(NC(=O)c2cc(NC(=O)c3cc(NC(=O)CCNC(=O)c4cc(NC(=O)c5cc(NC(=O)c6cc(NC(=O)CCNC(=O)c7cc(NC(=O)c8cc(NC(=O)[C@H](N)CCNC(=O)c9cc(NC(=O)c%10cc(NC(=O)CCNC(=O)c%11cc(NC(=O)c%12nc(NC(=O)c%13cc(NC(=O)CCNC(=O)c%14cc(NC(=O)c%15cc(NC(=O)c%16nccn%16C)cn%15C)cn%14C)cn%13C)cn%12C)cn%11C)cn%10C)cn9C)cn8C)cn7C)cn6C)cn5C)cn4C)cn3C)cn2C)cn1C [Polyamide 1037, ImPPβPIPβPPγNH2PPβPPPβPPPβTa]
- effect on HPV viral DNA (HPV 16 [1]): dramatic reduction of viral DNA levels
- IC50 (HPV 16 [1]; [6]): 0.1 to 1 µM
- effect on absolute HPV 16 DNA levels (HPV 16 [1]): nearly complete elimination of detectable viral DNA
- IC50 (HPV31): ≤ 0.1 µM
- effect on cell viability [4]: little impact on cell viability
- IC50 (HPV18): ≤ 0.1 µM

Molecule: Nc1ccn(C[C@@H](CO)OCP(=O)(O)O)c(=O)n1 [Cidofovir, reference compound]
- loss of total HPV DNA content (HPV 16 [1]; 72 hours, only at very high concentrations, FIG. 1): approximately 40%
- selectivity index (SI: ratio of IC50 to TD50) (HPV 16 [1]; cell culture): 2.5
- effect on HPV viral DNA (HPV 16 [1]): only effective against HPV DNA at high concentrations
- effect on cell viability [4]: also affect cell viability
- CC50 (MTT cell viability assay): 750 µM

Molecule: CN(CCCN)CCCNC(=O)CCNC(=O)c1cc(NC(=O)c2cc(NC(=O)c3cc(NC(=O)CCNC(=O)c4cc(NC(=O)c5cc(NC(=O)c6cc(NC(=O)[C@H](N)CCNC(=O)c7cc(NC(=O)c8cc(NC(=O)c9cc(NC(=O)CCNC(=O)c%10cc(NC(=O)c%11cc(NC(=O)c%12nccn%12C)cn%11C)cn%10C)cn9C)cn8C)cn7C)cn6C)cn5C)cn4C)cn3C)cn2C)cn1C [Polyamide 1020, ImPPβPPPγNH2PPPβPPPβTa]
- episomal DNA content by Southern blot (HPV episomal DNA): expected decrease in episomal DNA content
- IC50 (HPV 16 [1]; [6]): > 1 µM
- IC50 (HPV31): 0.1 to 1 µM

Molecule: C=C(C)[C@H]1Cc2c(ccc3c2O[C@@H]2COc4cc(OC)c(OC)cc4[C@@H]2C3=O)O1 [rotenone]
- CC50 at 24 h [5]: 0.49 µM

Molecule: CN(CCCN)CCCNC(=O)CCNC(=O)c1cc(NC(=O)c2cc(NC(=O)c3cc(NC(=O)CCNC(=O)c4cc(NC(=O)c5cc(NC(=O)c6cc(NC(=O)CCNC(=O)c7cc(NC(=O)CCNC(=O)CCCNC(=O)c8nc(NC(=O)c9cc(NC(=O)c%10cc(NC(=O)CCNC(=O)c%11cc(NC(=O)c%12nc(NC(=O)c%13cc(NC(=O)CCNC(=O)c%14cc(NC(=O)c%15cc(NC(=O)c%16nccn%16C)cn%15C)cn%14C)cn%13C)cn%12C)cn%11C)cn%10C)cn9C)cn8C)cn7C)cn6C)cn5C)cn4C)cn3C)cn2C)cn1C [Polyamide 1045, ImPPβPIPβPPIγβPβPPPβPPPβTa]
- IC50 (HPV 16 [1]; [6]): > 1 µM
- IC50 (HPV31): ≥ 1 µM
- IC50 (HPV18): 0.1 to 1 µM

Molecule: CC[C@@]1(O)C(=O)OCc2c1cc1n(c2=O)Cc2cc3ccccc3nc2-1 [camptothecin]
- CC50 at 24 h ([5]; H4IIE rat hepatoma cells): 5 µM

Molecule: CN(C)CCCNC(=O)CCNC(=O)c1cc(NC(=O)c2cc(NC(=O)c3cc(NC(=O)CCNC(=O)c4cc(NC(=O)c5cc(NC(=O)c6cc(NC(=O)CCNC(=O)c7cc(NC(=O)c8cc(NC(=O)[C@H](N)CCNC(=O)c9cc(NC(=O)c%10cc(NC(=O)CCNC(=O)c%11nc(NC(=O)c%12cc(NC(=O)c%13cc(NC(=O)CCNC(=O)c%14cc(NC(=O)c%15cc(NC(=O)c%16nccn%16C)cn%15C)cn%14C)cn%13C)cn%12C)cn%11C)cn%10C)cn9C)cn8C)cn7C)cn6C)cn5C)cn4C)cn3C)cn2C)cn1C [Polyamide 1066, ImPPβPPIβPPγNH2PPβPPPβPPPβDp]
- IC50 (HPV 16 [1]; [6]): 0.1 to 1 µM
- IC50 (HPV31): 0.1 to 1 µM
- IC50 (HPV18): 0.1 to 1 µM

Molecule: ImPPPβPPβPPPγNH2PPPβPPPβPPPβDp [Polyamide 1003]
- IC50 (HPV 16 [1]; [6]): 0.1 to 1 µM
- IC50 (HPV31): 0.1 to 1 µM
- IC50 (HPV18): 0.1 to 1 µM
